# Reference: US20220401385A1, “Combination Therapy Based on PD-1 Signaling Inhibitors” (Kyoto University, priority 2019, published 2022)
# Tests used:
# AMPK and mTOR signaling = assay: Western blotting of AMPK and mTOR signaling, CD44 high cells; format: cell-based, mice; settings: SPD 0.2 μM, 1 hour and 2 hours
# Method: FIG. 5 CD8^+ T cells were isolated from the spleen of mice without tumor inoculation, and further isolated into CD44^+ (CD44 high) and CD44^− (CD44 low) cell populations. a) CD44 low cells were simulated with CD3/CD28 antibody beads and SPD (0.2 μM). […] Protein expression levels after 1 hour and 2 hours were confirmed by western blotting with the respective indicated antibodies. As regards statistical analysis, t-test was used for comparison of two groups. * p<0.05, ** p<0.01, *** p<0.001, **** p<0.0001.
# CD8^+ T cells were isolated using mouse CD8 Microbeads (Miltenyi Biotec or Mojo). After washing with PBS twice, 2×10^6 cells were solubilized in a lysis buffer containing 30 mM Tris-HCl (pH. 7.4), 150 mM NaCl, 10% glycerol, 0.1% SDS, 1% Triton-X-100, 0.05% Na-Doc, 5 mM EDTA (pH. 8.0), protease inhibitor mixture (Roche Molecular Biochemicals) and phosphatase inhibitors (Nacalai Tesque). After measurement of protein concentrations by DC protein assay (Bio-Rad), 4 μg of proteins was mounted on 4 to 20% gradient Mini-PROTEAN TGX Gels (Bio-Rad) and electroblotted onto nitrocellulose membranes, which were then incubated in a blocking buffer of TBS containing 1% BSA. Primary antibody incubations were carried out overnight at 4° C. in blocking buffer. After washing, secondary antibody incubations were carried out at room temperature for 40 min in blocking buffer. […]
# [1] = test system: CD8+ T cells in draining lymph nodes; assay: CD3/CD28 restimulation of draining lymph node CD8+ T cells of treated mice (3H uptake, IFN-γ ELISA); format: in vivo, C57BL/6 mice; settings: combined use of SPD, 24 hours
# Method: FIG. 2-1 a) Treated mice were analyzed for draining lymph nodes and the inside of tumor. Briefly, draining lymph nodes of mice were isolated 13 days after tumor inoculation, and stained with antibodies to CD8 and Sca-1. FACS diagram and percentages of Sca-1^+ cells in CD8^+ T cells are shown. b) CD8^+ T cells in isolated draining lymph nodes were stimulated with CD3/CD28 antibody beads. After 24 hours, cell proliferation was examined by means of ^3H uptake. At the same time, IFN-γ concentration in culture supernatant was measured. c) Tumor from the same mice as described above was treated with collagenase. Then, expression rates of PD-1 and Tim3 in tumor-infiltrating CD8^+ T cells were analyzed. d) Oxygen consumption rate (OCR) and extracellular acidification rate (ECAR) of draining lymph node CD8^+ T cells were measured with a Seahorse analyzer (N=3 wells). For statistical analysis, ANOVA was used. * p<0.05, ** p<0.01, *** p<0.001, **** p<0.0001.
# IFN-γ levels in culture supernatant were measured quantitatively with mouse IFN-γ kit (BioLegend) following the instructions on the kit.
# T cells = assay: Function of oxidative phosphorylation in T cells (OCR, Seahorse); format: cell-based
# Method: The function of oxidative phosphorylation in T cells may be measured as described below. Briefly, the oxygen consumption rate (OCR) of T cells is measured with an extracellular flux analyzer (Seahorse). Baseline OCR and the OCR for the case where carbonyl cyanide-4 (trifluoromethoxy) phenylhydrazone (FCCP), or a reagent that is activated to the maximum extent upon addition of a mitochondrial function terminating agent (oligomycin, Antimycine A/Rotenone: A/R), is added are compared and calculated (Divakaruni A S, Paradyse A, Ferrick D A, Murphy A N, Jastroch M. 2014. Analysis and Interpretation of Microplate-Based Oxygen Consumption and pH data. In Methods in Enzymology, Volume 547, Chapter 16, 309-354).
# If, in the above-described measurement method, baseline OCR is increased, spare respiratory capacity (SRC) is increased, or mitochondrial ATP production rate (mitoATP) is increased, it may well be concluded that the function of oxidative phosphorylation in T cells has increased.
# CD44 high CD8+ T cells = assay: Mitochondria-related proteomics in vitro, CD44 high cells; format: cell-based, mice; settings: late phase, 44 hours after SPD stimulation
# Method: FIG. 6 CD8^+ T cells were isolated from the spleen of mice without tumor inoculation, and further isolated into CD44^+ (CD44 high) and CD44^− (CD44 low) cell populations. CD44 low cells and CD44 high cells were simulated with CD3/CD28 antibody beads and SPD (0.2 μM). After 1 hour and 44 hours, cells were collected and proteomics analyses regarding mitochondria-related proteins were conducted. A heat map showing the categories of respective signaling pathways, associated protein names and comparison of their expression levels is given.
# T cells were prepared by two methods. For in vivo analysis, 13 days after tumor inoculation and 3 days after the start of therapy, draining lymph nodes from 5 mice were pooled, followed by isolation of CD8^+ T cells. From the isolated CD8^+ T cells, three samples each consisting of 1×10^6 cells were prepared and used for analysis. For in vitro experiments, 2×10^5 CD8^+ T cells stimulated with 0.2 μM spermidine for 1 hour were used. For mass spectrometry analysis, a Tandem Mass Tag (TMT) system or a Data Independent Acquisition (DIA) system was used. In the analysis of in vivo CD8^+ T cells (FIG. 3), those proteins which increased by 1.5-fold or more or decreased by 0.6-fold or less were extracted.
smiles,measurement,setting,value
"NCCCCNCCCN [SPD, spermidine]","expression levels of pAMPK and its downstream molecules (pACC, pPKCa)",AMPK and mTOR signaling,markedly high
same,cell proliferation of isolated CD8+ T cells as stimulated with CD3,[1]; 3H uptake,enhanced
same,IFN-γ production of isolated CD8+ T cells as stimulated with CD3,[1]; culture supernatant,enhanced
same,function of oxidative phosphorylation in T cells,T cells,increased
same,expression levels of mitochondrial proteins and proteins of mitochondria-related metabolism,CD44 high CD8+ T cells,high
